Experimental data reported in patent US20250197372A1 (priority 2020, published 2025).

Key:
Format in all cases: biochemical
[1] = target: recombinant human GAA (acid alpha-glucosidase) (Homo sapiens, UniProt P10253); test: Acid alpha-glucosidase (GAA) assay (4-methylumbelliferyl-alpha-D-pyranoside substrate, fluorescence)
Outline: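 IC50 from 4-PL curve fit of percent inhibition, based on fluorescence (365/440 nm) of released methylumbelliferone relative to uninhibited enzyme. Compound dilutions and human GAA incubated 60 min, 37 °C, before 20 min substrate reaction at 37 °C, quenched at pH 10.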

[2] = target: rat sucrase (partially purified alpha-glucosidase from intestinal rat powder) (Rattus norvegicus, UniProt P23739); test: Intestinal alpha-glucosidase assay, sucrose substrate (Glucose GO Kit)
Outline: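 Partially purified alpha-glucosidase from rat intestinal powder was preincubated 60 min at 37 °C with serial compound dilutions, then given maltose or sucrose and incubated 30 min at 37 °C.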

[3] = target: T1, recombinant alpha-glucosidase II (murine full-length glucosidase II, alpha and beta subunits, Glu 2) (Mus musculus, UniProt Q8BHN3); test: Alpha-glucosidase II assay (4-methylumbelliferyl-alpha-D-pyranoside substrate, fluorescence); conditions: Glucosidase 2; read-out: Glu2 IC50
T1 construct: made in house; host or cells: HEK-293T cells transduced with BacMam viruses (75% alpha, 25% beta); protein harvested from culture supernatant

[4] = target: T2, recombinant human GBA (beta-glucocerebrosidase) (Homo sapiens, UniProt P04062); test: Beta-glucocerebrosidase (GBA, glucosylceramidase) assay (4-methylumbelliferyl-beta-D-pyranoside substrate, fluorescence)
T2 sequence (P04062 40-536): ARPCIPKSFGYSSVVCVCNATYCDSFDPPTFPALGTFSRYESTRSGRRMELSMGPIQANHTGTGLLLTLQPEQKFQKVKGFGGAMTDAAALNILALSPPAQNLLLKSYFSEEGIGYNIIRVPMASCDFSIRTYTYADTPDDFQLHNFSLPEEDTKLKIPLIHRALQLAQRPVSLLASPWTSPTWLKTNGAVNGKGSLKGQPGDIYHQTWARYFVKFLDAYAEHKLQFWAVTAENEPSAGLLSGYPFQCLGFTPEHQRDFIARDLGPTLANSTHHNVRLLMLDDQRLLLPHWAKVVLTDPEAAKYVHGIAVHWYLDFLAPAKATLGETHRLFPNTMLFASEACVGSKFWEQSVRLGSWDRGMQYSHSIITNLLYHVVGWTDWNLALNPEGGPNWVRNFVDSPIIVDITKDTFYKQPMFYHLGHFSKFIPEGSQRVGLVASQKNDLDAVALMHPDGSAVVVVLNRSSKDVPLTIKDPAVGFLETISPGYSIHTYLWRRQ
Outline: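 IC50 by four-parameter fit of percent inhibition, with product fluorescence (365/440 nm) read after a glycine/NaOH pH 10 stop. Compound and commercial recombinant human enzyme were incubated 60 min at 37 °C before a further 60 min at 37 °C with 4-methylumbelliferyl-beta-D-pyranoside substrate.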

T1 sequence (O08795 15-521): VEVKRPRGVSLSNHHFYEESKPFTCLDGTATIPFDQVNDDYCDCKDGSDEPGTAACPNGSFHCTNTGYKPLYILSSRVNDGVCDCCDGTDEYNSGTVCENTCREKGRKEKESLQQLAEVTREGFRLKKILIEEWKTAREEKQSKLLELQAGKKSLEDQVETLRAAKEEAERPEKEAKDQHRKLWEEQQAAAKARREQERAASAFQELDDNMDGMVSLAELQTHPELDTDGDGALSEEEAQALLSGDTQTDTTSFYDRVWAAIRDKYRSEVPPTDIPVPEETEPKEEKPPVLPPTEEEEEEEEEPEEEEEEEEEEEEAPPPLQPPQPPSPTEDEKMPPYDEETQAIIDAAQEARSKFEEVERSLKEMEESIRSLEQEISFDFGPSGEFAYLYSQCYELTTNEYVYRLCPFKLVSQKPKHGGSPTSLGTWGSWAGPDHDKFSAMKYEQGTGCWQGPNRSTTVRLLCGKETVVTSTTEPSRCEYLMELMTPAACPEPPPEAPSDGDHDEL
T1 sequence (Q8BHN3 33-944): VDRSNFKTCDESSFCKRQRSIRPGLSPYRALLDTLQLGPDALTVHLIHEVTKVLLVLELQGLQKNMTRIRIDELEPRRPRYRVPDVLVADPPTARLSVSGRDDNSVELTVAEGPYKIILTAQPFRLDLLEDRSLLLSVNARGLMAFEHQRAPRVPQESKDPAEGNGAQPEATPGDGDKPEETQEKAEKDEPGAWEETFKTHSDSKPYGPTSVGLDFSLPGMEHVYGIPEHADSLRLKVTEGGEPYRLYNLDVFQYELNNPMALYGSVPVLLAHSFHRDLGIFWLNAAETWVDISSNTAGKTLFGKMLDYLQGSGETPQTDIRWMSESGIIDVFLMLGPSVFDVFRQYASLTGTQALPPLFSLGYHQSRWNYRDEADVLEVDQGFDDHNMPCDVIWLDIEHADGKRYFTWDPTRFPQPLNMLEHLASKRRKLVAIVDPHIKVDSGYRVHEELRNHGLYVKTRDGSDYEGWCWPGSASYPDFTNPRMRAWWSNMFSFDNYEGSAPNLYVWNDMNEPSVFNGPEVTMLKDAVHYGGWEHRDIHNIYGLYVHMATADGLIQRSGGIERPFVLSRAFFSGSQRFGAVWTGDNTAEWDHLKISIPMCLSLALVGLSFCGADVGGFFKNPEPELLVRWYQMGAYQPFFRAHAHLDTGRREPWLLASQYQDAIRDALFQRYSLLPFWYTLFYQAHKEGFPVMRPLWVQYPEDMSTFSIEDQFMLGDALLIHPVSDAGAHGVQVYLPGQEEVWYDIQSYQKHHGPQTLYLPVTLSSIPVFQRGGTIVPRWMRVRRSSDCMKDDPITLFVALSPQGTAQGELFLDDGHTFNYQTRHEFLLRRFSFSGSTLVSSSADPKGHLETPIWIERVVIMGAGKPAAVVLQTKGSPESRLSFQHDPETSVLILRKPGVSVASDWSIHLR
Sequence of rat sucrase (partially purified alpha-glucosidase from intestinal rat powder) (P23739 whole entry): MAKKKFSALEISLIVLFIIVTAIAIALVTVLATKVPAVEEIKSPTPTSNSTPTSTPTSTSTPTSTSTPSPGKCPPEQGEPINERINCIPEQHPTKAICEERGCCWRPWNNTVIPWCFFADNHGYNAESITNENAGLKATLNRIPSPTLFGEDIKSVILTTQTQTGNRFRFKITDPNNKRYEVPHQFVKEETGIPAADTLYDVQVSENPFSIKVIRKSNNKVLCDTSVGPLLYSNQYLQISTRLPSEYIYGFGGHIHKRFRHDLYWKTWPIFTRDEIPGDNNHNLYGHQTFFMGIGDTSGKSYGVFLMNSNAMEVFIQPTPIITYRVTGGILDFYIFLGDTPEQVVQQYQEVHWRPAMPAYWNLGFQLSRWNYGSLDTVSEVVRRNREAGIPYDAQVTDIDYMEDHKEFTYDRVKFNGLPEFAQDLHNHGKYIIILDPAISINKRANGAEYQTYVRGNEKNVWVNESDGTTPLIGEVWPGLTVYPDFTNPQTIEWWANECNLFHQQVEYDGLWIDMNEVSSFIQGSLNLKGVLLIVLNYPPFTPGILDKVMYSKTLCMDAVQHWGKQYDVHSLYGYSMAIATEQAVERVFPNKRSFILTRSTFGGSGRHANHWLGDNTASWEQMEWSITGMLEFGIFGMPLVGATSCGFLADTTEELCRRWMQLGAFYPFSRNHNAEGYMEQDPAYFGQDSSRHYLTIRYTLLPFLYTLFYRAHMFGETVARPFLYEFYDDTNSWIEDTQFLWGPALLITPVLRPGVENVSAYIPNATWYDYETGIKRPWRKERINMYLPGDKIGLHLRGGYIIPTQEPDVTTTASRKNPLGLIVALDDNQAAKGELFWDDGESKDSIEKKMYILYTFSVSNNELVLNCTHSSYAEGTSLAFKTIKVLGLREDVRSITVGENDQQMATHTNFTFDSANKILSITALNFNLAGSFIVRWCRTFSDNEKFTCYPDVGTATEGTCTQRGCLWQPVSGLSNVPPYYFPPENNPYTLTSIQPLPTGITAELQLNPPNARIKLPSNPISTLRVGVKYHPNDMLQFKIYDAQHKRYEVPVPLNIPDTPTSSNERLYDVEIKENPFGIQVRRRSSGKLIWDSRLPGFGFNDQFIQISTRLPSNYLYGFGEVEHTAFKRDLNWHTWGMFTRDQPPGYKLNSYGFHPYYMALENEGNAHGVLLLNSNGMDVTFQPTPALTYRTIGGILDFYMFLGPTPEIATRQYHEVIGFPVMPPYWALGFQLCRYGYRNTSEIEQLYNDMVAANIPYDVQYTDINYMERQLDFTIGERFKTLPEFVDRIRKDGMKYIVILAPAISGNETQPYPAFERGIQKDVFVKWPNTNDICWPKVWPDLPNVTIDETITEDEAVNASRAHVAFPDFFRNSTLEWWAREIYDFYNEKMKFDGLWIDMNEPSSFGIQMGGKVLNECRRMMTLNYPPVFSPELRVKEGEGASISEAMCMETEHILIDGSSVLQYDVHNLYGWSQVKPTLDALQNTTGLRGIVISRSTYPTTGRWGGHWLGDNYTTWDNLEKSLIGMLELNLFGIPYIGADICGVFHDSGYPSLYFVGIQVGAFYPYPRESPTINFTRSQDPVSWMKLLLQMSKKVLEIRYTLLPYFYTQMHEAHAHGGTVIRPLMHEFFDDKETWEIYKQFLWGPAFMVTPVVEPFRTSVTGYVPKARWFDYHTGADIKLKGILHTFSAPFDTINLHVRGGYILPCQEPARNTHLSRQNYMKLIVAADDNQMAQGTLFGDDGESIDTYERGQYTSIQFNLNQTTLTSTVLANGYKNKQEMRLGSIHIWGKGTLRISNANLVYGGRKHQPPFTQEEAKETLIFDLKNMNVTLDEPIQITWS

Row | SMILES | IC50 [1] [nM] | IC50 [2] [nM] | IC50 [3] [nM] | IC50 [4] [nM]
1 | COc1cc(-c2ncccn2)ccc1NCCCCCCN1C[C@H](O)[C@@H](O)[C@H](O)[C@H]1CO [Compound 1231, (2R,3R,4R,5S)-2-(hydroxymethyl)-1-(6-{[2-methoxy-4-(pyrimidin-2-yl)phenyl]amino}hexyl)piperidine-3,4,5-triol] | 91 | 67 | 30 | 2110
2 | Cc1cc(NCc2cnc(CN3C[C@H](O)[C@@H](O)[C@H](O)[C@H]3CO)cn2)cc(N2CCOCC2)c1 [Compound 1332, (2R,3R,4R,5S)-2-(hydroxymethyl)-1-{[5-({[3-methyl-5-(morpholin-4-yl)phenyl]amino}methyl)pyrazin-2-yl]methyl}piperidine-3,4,5-triol] | 165 | 3500 | > 100000 | > 100000
3 | [N-]=[N+]=Nc1ccc(NCCOC(=O)NCCN2C[C@H](O)[C@@H](O)[C@H](O)[C@H]2CO)c([N+](=O)[O-])c1 [Compound 1268, 2-[(4-azido-2-nitrophenyl)amino]ethyl N-{2-[(2R,3R,4R,5S)-3,4,5-trihydroxy-2-(hydroxymethyl)piperidin-1-yl]ethyl}carbamate] | 617 | 363 | 32 | 1520
4 | [N-]=[N+]=Nc1ccc(NCCOCCN2C[C@H](O)[C@@H](O)[C@H](O)[C@H]2CO)c([N+](=O)[O-])c1 [Compound 1255, (2R,3R,4R,5S)-1-(2-{2-[(4-azido-2-nitrophenyl)amino]ethoxy}ethyl)-2-(hydroxymethyl)piperidine-3,4,5-triol] | 228 | 56 | 29 | 3080
5 | N#Cc1cc(Br)cc(NCc2ccc(CN3C[C@H](O)[C@@H](O)[C@H](O)[C@H]3CO)cc2)c1 [Compound 1026, 3-bromo-5-{[(4-{[(2R,3R,4R,5S)-3,4,5-trihydroxy-2-(hydroxymethyl)piperidin-1-yl]methyl}phenyl)methyl]amino}benzonitrile] | 64 | < 1 | < 1 | 37900
6 | CN(C)Cc1ccc(NCCCCCCN2C[C@H](O)[C@@H](O)[C@H](O)[C@H]2CO)c(C(F)(F)F)c1 [Compound 1259, (2R,3R,4R,5S)-1-[6-({4-[(dimethylamino)methyl]-2-(trifluoromethyl)phenyl}amino)hexyl]-2-(hydroxymethyl)piperidine-3,4,5-triol] | 238 | 417 | 72 | 1350
7 | COc1cc(NCCCCCCN2C[C@H](O)[C@@H](O)[C@H](O)[C@H]2CO)cc(-c2ncco2)c1 [Compound 1216, (2R,3R,4R,5S)-2-(hydroxymethyl)-1-(6-{[3-methoxy-5-(1,3-oxazol-2-yl)phenyl]amino}hexyl)piperidine-3,4,5-triol] | 37 | 796 | 2 | 2140
8 | [N-]=[N+]=Nc1ccc(N2CC(OCCN3C[C@H](O)[C@@H](O)[C@H](O)[C@H]3CO)C2)c([N+](=O)[O-])c1 [Compound 1252, (2R,3R,4R,5S)-1-(2-{[1-(4-azido-2-nitrophenyl)azetidin-3-yl]oxy}ethyl)-2-(hydroxymethyl)piperidine-3,4,5-triol] | 141 | 80 | 82 | 8670
9 | OC[C@@H]1[C@@H](O)[C@H](O)[C@@H](O)CN1Cc1cccc(CNc2cc(-c3ncccn3)cc(C3CC3)c2)n1 [Compound 1333, (2R,3R,4R,5S)-1-{[6-({[3-cyclopropyl-5-(pyrimidin-2-yl)phenyl]amino}methyl)pyridin-2-yl]methyl}-2-(hydroxymethyl)piperidine-3,4,5-triol] | 2180 | 1590 | > 100000 | > 100000
10 | CS(=O)(=O)c1cc(Br)cc(NCc2ccc(CN3C[C@H](O)[C@@H](O)[C@H](O)[C@H]3CO)cc2)c1 [Compound 1025, (2R,3R,4R,5S)-1-[(4-{[(3-bromo-5-methanesulfonylphenyl)amino]methyl}phenyl)methyl]-2-(hydroxymethyl)piperidine-3,4,5-triol] | 135 | 2 | 229 | 38900
11 | Cc1cc(NCc2cccc(CN3C[C@H](O)[C@@H](O)[C@H](O)[C@H]3CO)n2)cc(-c2ccco2)c1 [Compound 1334, (2R,3R,4R,5S)-1-{[6-({[3-(furan-2-yl)-5-methylphenyl]amino}methyl)pyridin-2-yl]methyl}-2-(hydroxymethyl)piperidine-3,4,5-triol] | 714 | 336 | > 100000 | > 100000
12 | COc1ccc(-c2ccc(CCCN3C[C@H](O)[C@@H](O)[C@H](O)[C@H]3CO)cc2)cc1 [Compound 1305, (2R,3R,4R,5S)-2-(hydroxymethyl)-1-(3-{4′-methoxy-[1,1′-biphenyl]-4-yl}propyl)piperidine-3,4,5-triol] | 498 | 1010 | < 1 | 7860
13 | OC[C@@H]1[C@@H](O)[C@H](O)[C@@H](O)CN1CCCCCCCCC1CNCCO1 (stereo partly drawn) [Compound 1311, (2R,3R,4R,5S)-2-(hydroxymethyl)-1-[8-(morpholin-2-yl)octyl]piperidine-3,4,5-triol] | 747 | 1010 | 197 | 26200
14 | Cc1cc(NCc2cccc(CN3C[C@H](O)[C@@H](O)[C@H](O)[C@H]3CO)c2)cc(-c2ccc[nH]2)c1 [Compound 1033, (2R,3R,4R,5S)-2-(hydroxymethyl)-1-{[3-({[3-methyl-5-(1H-pyrrol-2-yl)phenyl]amino}methyl)phenyl]methyl}piperidine-3,4,5-triol] | 5370 | 34 | > 100000 | > 100000
15 | [N-]=[N+]=Nc1ccc(NCCNS(=O)(=O)NCCN2C[C@H](O)[C@@H](O)[C@H](O)[C@H]2CO)c([N+](=O)[O-])c1 [Compound 1275, (2R,3R,4R,5S)-1-{2-[({2-[(4-azido-2-nitrophenyl)amino]ethyl}sulfamoyl)amino]ethyl}-2-(hydroxymethyl)piperidine-3,4,5-triol] | 556 | 413 | 366 | 2170
16 | [N-]=[N+]=Nc1ccc(NCCc2cccc(CCN3C[C@H](O)[C@@H](O)[C@H](O)[C@H]3CO)c2)c([N+](=O)[O-])c1 [Compound 1240, (2R,3R,4R,5S)-1-[2-(3-{2-[(4-azido-2-nitrophenyl)amino]ethyl}phenyl)ethyl]-2-(hydroxymethyl)piperidine-3,4,5-triol] | 12800 | 318 | 45 | 496
17 | [N-]=[N+]=Nc1ccc(NCCN2CC(OCCN3C[C@H](O)[C@@H](O)[C@H](O)[C@H]3CO)C2)c([N+](=O)[O-])c1 [Compound 1271, (2R,3R,4R,5S)-1-{2-[(1-{2-[(4-azido-2-nitrophenyl)amino]ethyl}azetidin-3-yl)oxy]ethyl}-2-(hydroxymethyl)piperidine-3,4,5-triol] | 1360 | 266 | 539 | 1900
18 | O=S(=O)(Nc1cc(-c2ncccn2)ccc1NCCCCCCN1C[C@H](O)[C@@H](O)[C@H](O)[C@H]1CO)C1CC1 [Compound 1227, N-[5-(pyrimidin-2-yl)-2-({6-[(2R,3R,4R,5S)-3,4,5-trihydroxy-2-(hydroxy-methyl)piperidin-1-yl]hexyl}amino)phenyl]cyclopropanesulfonamide] | 82 | 104 | 17 | 592
19 | NC(=O)c1cc(-c2ncccn2)ccc1NCCCCCCN1C[C@H](O)[C@@H](O)[C@H](O)[C@H]1CO [Compound 1266, 5-(pyrimidin-2-yl)-2-({6-[(2R,3R,4R,5S)-3,4,5-trihydroxy-2-(hydroxymethyl)piperidin-1-yl]hexyl}amino)benzamide] | 103 | 140 | 7 | 6340
20 | O=[N+]([O-])c1cc(N2CC3CC2CO3)ccc1NCc1ccc(CN2C[C@@H](O)[C@H](O)[C@@H](O)[C@@H]2CO)cc1 (stereo in doubt) [Compound 1015, (2S,3S,4S,5R)-2-(hydroxymethyl)-1-[(4-{[(2-nitro-4-{2-oxa-5-azabicyclo[2.2.1]heptan-5-yl}phenyl)amino]methyl}phenyl)methyl]piperidine-3,4,5-triol] | 129 | 78 | 2 | > 100000
